Results on 3 sequences are retold here after patent US8076449B2, “Therapeutic agents of colivelin for neurodegenerative diseases” (Tomohiro Chiba, priority 2004, dated 2011).

“Also recorded” adds a separate entry of the source. Ends that are not written are not given here.

One assay has as its system G93A-SOD1 Tg mice. Briefly: Motor performance (rotarod), onset and survival test with ALS model animal, icv administration (Example 3). The assay is classed as in vivo, mouse. The source says: Transgenic (Tg) mice (hereinafter, referred to as “G93A-SOD1 Tg mice”) expressing human FALS-associated SOD1 mutant gene with a mutation (G93A) from Gly to Ala at 93 position are the best-established mouse model of ALS (Gurney M E, et al., 1994, Science 264: 1772-1775; and Gurney M E, et al., 1997, J Neurol Sci 152 Suppl 1: S67-73). The G93A-SOD1 Tg mice manifest symptoms quite similar to human ALS after normal birth and rapidly result in death in all cases. The G93A-SOD1 Tg mice, which have the onset of the regression of motor neurons similar clinically and pathologically to that in human ALS, have been known so far to be the most excellent model of ALS throughout the world and employed for identifying effective candidate drugs for ALS patients.
The model mice were used to confirm the in vivo effect of colivelin against neurotoxicity caused by G93A-SOD1.
The G93A-SOD1 Tg mice were purchased from Jackson Laboratories (Bar Harbor, Me.). The G93A-SOD1 Tg mice were kept as hemizygote mice by the mating thereof with C57BL/6J mice (CLEA Japan, Inc). The mice were raised in an SPF room (specific pathogen-free animal facility; 23±1° C., 55±5% humidity) in the 12-hour light/12-hour dark cycle (7:00 AM-7:00 PM). The mice were freely fed with gamma ray-irradiated Picolab Rodent Diet 20 (PMI Feeds Inc. St. Louis, Mo.) and sodium hyposulfite (5 ppm)-containing aseptic deionized distilled water.
The G93A-SOD1 Tg mice at 10 weeks of age were put under anesthesia by the intraperitoneal injection of 10% Nembutal (sodium pentobarbital; 60 mg/kg). A hole was made on the cranial bone with a drill on a sterotaxic surgery apparatus to aseptically transplant the C315GS-4 cannula system for mouse (Plastics One Inc., Roanoke, Va.) to the mouse left lateral ventricle. The cannula was fixed with a surgical adhesive and dental cement.
The mice at 80 days of age were divided at random to a saline (control)-administered group (n=7), 100 fmol colivelin-administered group (n=6), 10 pmol colivelin-administered group (n=7), 1 nmol colivelin-administered group (n=7), and 30 nmol ADNF-administered group (n=5). Until the end of the experiment, the control group received the intracerebroventricular (icv) injection of 3 μl of saline each day, while the colivelin-administered groups and the ADNF-administered group received the icy injection of 3 μl of colivelin (100 f mol, 10 pmol, or 1 nmol) and 3 μI of 30 nmol ADNF, respectively. In this context, colivelin and ADNF were separately dissolved in a saline for the injection. The injection was performed with the cannula in C315IS-4 connected to Hamilton syringe through a cannula tube (C232, PESO/Thin wall, Plastic One).
The motor function (motor performance) was evaluated weekly with a rotarod (CLEA Japan Inc). After the cannulation, the mice were acclimated to the rotarod for 2 days. The mice were placed onto a rotating rod at a speed of 5 rpm, and the time for which each mouse could remain on the rod was automatically detected. The test was conducted according to the protocol wherein the test was completed as a score of 7 minutes if the mouse remained on the rod for 7 minutes (Li M, et al., 2000, Science 288: 335-339; and Kaspar B K, et al., 2003, Science 301: 839-842). Disease onset was defined as the first day when the mouse could not remain on the rotarod for 7 minutes.
Death was defined when the mouse was unable to right itself within 30 seconds after being placed on its back (Li M, et al., op. cit).

Assay [1] deals with F11 cells transformed with G93R-SOD1. Briefly: Neuronal cell death induced by G93R-SOD1 gene, Trypan blue exclusion assay. The assay is classed as cell-based, rat/mouse hybrid. Here is the method: (§1) F11 cell, the hybrid cell of rat embryonic day 13 (E13) primary cultured neuronal cell with mouse neuroblastoma NTG18 cell, was cultured in Ham's F-12 medium (Life Technologies, Gaithersburg, Md.) containing 18% FBS (Hyclone, Logan, Utah) and antibiotics as previously reported (Platika D, et al., 1985, Proc Natl Acad Sci USA 82: 3499-3503; Yamatsuji T, et al., 1996, Science 272: 1349-1352; Huang P, et al., 2000, Mol Hum Reprod 6: 1069-1078; and Niikura T, et al., 2001, J Neuroscience, 21: 1902-1910).
(§2) (i) Test of Neuronal Cell Death Induced by M146L-PS1 or G93R-SOD1 Gene
The F11 cells (7×10^4 cells/well, 6-well plate, 12- to 16-hour culture in Ham's F-12 (18% FBS) medium) were transformed with M146L-PS1 or G93R-SOD1 gene by lipofection (0.5 μg of cDNA; 1 μl of LipofectAMINE; 2 μl of PLUS Reagent) under serum-free conditions for 3 hours and cultured for 2 hours in Ham's F-12 (18% FBS) medium. […] After 72 hours of the transformation, cell mortality was measured by Trypan blue exclusion assay as previously reported (Hashimoto Y, et al., 2001, J Neurosci 21: 9235-9245; and Hashimoto Y, et al, 2001, Proc Natl Acad Sci USA 98: 6336-6341).
ADNF has already been reported to protect neurons from toxicity caused by SOD1 mutations. […] After 72 hours of the transformation, cell mortality was measured by Trypan blue exclusion assay (FIG. 3).

For assay [2], the system named is F11 cells transformed with M146L-PS1. Briefly: Neuronal cell death induced by M146L-PS1 gene, Trypan blue exclusion assay. To be noted: M146L-PS1, 72 hours after transformation. The assay is classed as cell-based, rat/mouse hybrid. Here is the method: as §1, §2
The F11 cells (7×10^4 cells/well, 6-well plate, 12- to 16-hour culture in Ham's F-12 (18% FBS) medium) were transformed with M146L-PS1 or G93R-SOD1 gene by lipofection (0.5 μg of cDNA; 1 μl of LipofectAMINE; 2 μl of PLUS Reagent) under serum-free conditions for 3 hours and cultured for 2 hours in Ham's F-12 (18% FBS) medium. The medium was replaced by Ham's F-12 (10% FBS) in the presence or absence of varying concentrations (100 aM, 1 fM, 10 fM, 100 fM, 1 pM, 10 pM, 100 pM, 1 nM, 10 nM, or 100 nM) of colivelin or AGA-CBR-HNG17 peptides. After 72 hours of the transformation, cell mortality was measured by Trypan blue exclusion assay as previously reported (Hashimoto Y, et al., 2001, J Neurosci 21: 9235-9245; and Hashimoto Y, et al, 2001, Proc Natl Acad Sci USA 98: 6336-6341). […]

[3] abbreviates: 100 fmol colivelin icv each day.

Turning to SALLRSIPA [ADNF, reference compound], in the assay on G93A-SOD1 Tg mice (30 nmol ADNF icv each day), the mean survival days came out at 145.0 days and the “time up to which motor function was maintained (rotarod)” value was “approximately 130 days”.
With SALLRSIPAPAGASRLLLLTGEIDLP [colivelin], the mean survival days with G93A-SOD1 Tg mice (10 pmol colivelin icv each day) is recorded as 159.4 days. Besides, the “prolongation of life span” value in the assay on G93A-SOD1 Tg mice (10 pmol colivelin icv each day, versus control) is given as 11.7%. Further, in the assay on G93A-SOD1 Tg mice (1 nmol colivelin icv each day), the “delay of the disease onset” value is recorded as “approximately 17 day”, the mean survival days turned out to be 156.7 days and the “protective action on motor function (rotarod)” value is “most potent protective action”. Further, in the assay with G93A-SOD1 Tg mice (setting [3]), the mean survival days is 153.3 days and the “time of deterioration of motor function (rotarod)” value is listed as “approximately 120 days”. In the assay on G93A-SOD1 Tg mice (experiments using ALS model mice (summary statement)), the “recovery of motor function” value was “approximately 70%”. Further, the “concentration completely suppressing cell death induced by G93R-SOD1” value in assay [1] (72 hours after transformation) worked out at 1 pM. The “concentration completely suppressing cell death induced by mutant PS1” value in assay [2] is given as 100 fM.
Take “PAGASRLLLLTGEIDLP [AGA-C8R-HNG17, Pro-Ala-Gly-Ala-Ser-Arg-Leu-Leu-Leu-Leu-Thr-Gly-Glu-Ile-Asp-Leu-Pro, reference compound]”: the “neuroprotective effect on cell death induced by SOD1 mutant” value in assay [1] (varying concentrations 100 aM to 100 nM) was “could not protect; also recorded: not observed”. Moreover, the “concentration of complete protection against cell death induced by mutant PS1” value in assay [2] came out at 10 pM.
